{
  "source": "paper PMC5149019",
  "about": "“Synthesis, Characterization and Cytotoxicity of Alkylated Quercetin Derivatives” (Iranian Journal of Pharmaceutical Research : IJPR, 2016)",
  "key": {"cancer cells": {"tested_on": "cancer cells", "settings": "cited from earlier work"}, "MCF-7 cells": {"tested_on": "MCF-7 cells", "experiment": "MTT cytotoxicity assay, MCF-7 cells", "type": "cell-based, human", "settings": "for IC50: Homo sapiens, MCF7, MCF-7 cells, 48 h exposure, MTT", "procedure": "(§1) Taking solubility of the derivatives into consideration, BQ and GQ were selected for the primary cytotoxicity study. According to the result of the primary cytotoxicity study, the cytotoxicity of GQ on NCI-H446, A549, MGC-803 and SGC-7901 cell lines was further investigated. To justify the effectiveness of BQ and GQ, cytotoxicity of the parent compound quercetin on all the cell lines used in this study was determined either. Briefly, 8000 cells with 0.1 mL medium were seeded in 96-well microplates. The derivatives or quercetin were dissolved in DMSO (50 mM) and then diluted with the medium to a series of testing concentrations. After exposure to the derivatives or quercetin for 48 h, cells were carefully washed by PBS three times and then 0.1 mL MTT (0.5 mg/mL) was added to each well. DMSO was used as solvent for following spectrum analysis at 570 nm. Proliferation values were calculated with the formula as follow: proliferation = (Atest-Ablank)/(Acontrol-Ablank). According to the proliferation data, all IC50 values were calculated by SPSS software using probit regression assay."}, "[1]": {"experiment": "Solubility in DMEM medium by turbidimetry", "type": "physicochemical", "settings": "turbidimetry at 630 nm; for solubility at 48 h: 37 °C, aqueous buffer, kinetic from dmso stock", "procedure": "Solubility of the derivatives was evaluated by turbidimetry as previously described ([7]). Briefly, derivatives were dissolved in DMSO at a final concentration of 50 mM, and then diluted by DMEM medium at final concentrations of 20, 40, 60, 80, 100, 120, 140, 160, 180 and 200 μM. After these solutions were incubated at 37 ℃ for 48 h, absorbances of them at 630 nm were measured."}, "Caco-2 cells": {"tested_on": "Caco-2 cells", "experiment": "MTT cytotoxicity assay, Caco-2 cells", "type": "cell-based", "settings": "Homo sapiens, 48 h exposure", "procedure": "as §1"}, "NCI-H446": {"tested_on": "NCI-H446", "experiment": "MTT cytotoxicity assay, NCI-H446 cells", "type": "cell-based", "settings": "Homo sapiens, 48 h exposure", "procedure": "as §1"}, "A549": {"tested_on": "A549", "experiment": "MTT cytotoxicity assay, A549 cells", "type": "cell-based", "settings": "Homo sapiens, 48 h exposure", "procedure": "as §1"}, "MGC-803": {"tested_on": "MGC-803", "experiment": "MTT cytotoxicity assay, MGC-803 cells", "type": "cell-based", "settings": "Homo sapiens, 48 h exposure", "procedure": "as §1"}, "SGC-7901": {"tested_on": "SGC-7901", "experiment": "MTT cytotoxicity assay, SGC-7901 cells", "type": "cell-based", "settings": "Homo sapiens, 48 h exposure", "procedure": "as §1"}, "[2]": {"settings": "compared with quercetin, ref [5]"}},
  "data": [
    {"smiles": "CC(=O)Oc1cc(O)c2c(=O)c(OC(C)=O)c(-c3ccc(OC(C)=O)c(OC(C)=O)c3)oc2c1", "note": "[3,7,3′,4′-O-tetraacetylquercetin]", "values": [
      {"measurement": "cytotoxicity compared with quercetin", "setting": "cancer cells; [2]", "result": "about 3 fold"}
    ]},
    {"smiles": "COc1cc(O)c2c(=O)c(OC)c(-c3ccc(OC)c(OC)c3)oc2c1", "note": "[3,7,3′,4′-O-tetramethylquercetin]", "values": [
      {"measurement": "cytotoxicity compared with quercetin (in words)", "setting": "cancer cells; [2]", "result": "decreases the cytotoxicity"}
    ]},
    {"smiles": "C=CCOc1cc(O)c2c(=O)c(O)c(-c3ccc(O)c(O)c3)oc2c1", "note": "[AQ, 7-O-allylquercetin]", "values": [
      {"measurement": "inhibition rate to MCF-7 cells", "setting": "MCF-7 cells; at the highest concentration", "result": "less than 50%"},
      {"measurement": "solubility at 48 h", "setting": "[1]", "result": "~140", "unit": "µM"}
    ]},
    {"smiles": "CCCCOc1cc(O)c2c(=O)c(O)c(-c3ccc(O)c(O)c3)oc2c1", "note": "[BQ, 7-O-Butylquercetin]", "values": [
      {"measurement": "IC50", "setting": "MCF-7 cells", "result": 38.6, "unit": "µM"},
      {"measurement": "IC50", "setting": "Caco-2 cells", "result": 66.8, "unit": "µM"},
      {"measurement": "solubility at 48 h", "setting": "[1]", "result": "~180", "unit": "µM"}
    ]},
    {"smiles": "O=c1c(O)c(-c2ccc(O)c(O)c2)oc2cc(OCC=Cc3ccccc3)cc(O)c12", "note": "[CQ, 7-O-cinnamylquercetin]", "values": [
      {"measurement": "solubility in DMEM medium (in words)", "setting": "[1]; 37 ℃, 48 h", "result": "almost insoluble"}
    ]},
    {"smiles": "CC(C)=CCC/C(C)=C/COc1cc(O)c2c(=O)c(O)c(-c3ccc(O)c(O)c3)oc2c1", "note": "[GQ, 7-O-geranylquercetin]", "values": [
      {"measurement": "IC50", "setting": "MCF-7 cells", "result": 20.2, "unit": "µM"},
      {"measurement": "IC50", "setting": "Caco-2 cells", "result": 43.7, "unit": "µM"},
      {"measurement": "IC50", "setting": "NCI-H446", "result": 27.6, "unit": "µM"},
      {"measurement": "IC50", "setting": "A549", "result": 29.5, "unit": "µM"},
      {"measurement": "IC50", "setting": "MGC-803", "result": 25.4, "unit": "µM"},
      {"measurement": "IC50", "setting": "SGC-7901", "result": 18.5, "unit": "µM"},
      {"measurement": "solubility at 48 h", "setting": "[1]", "result": "~180", "unit": "µM"}
    ]},
    {"smiles": "O=c1c(O)c(-c2ccc(O)c(O)c2)oc2cc(O)cc(O)c12", "note": "[Quercetin]", "values": [
      {"measurement": "IC50", "setting": "MCF-7 cells", "result": 343, "unit": "µM"},
      {"measurement": "IC50", "setting": "Caco-2 cells", "result": 340, "unit": "µM"},
      {"measurement": "IC50", "setting": "NCI-H446", "result": 68.9, "unit": "µM"},
      {"measurement": "IC50", "setting": "A549", "result": 77.2, "unit": "µM"},
      {"measurement": "IC50", "setting": "MGC-803", "result": 80.6, "unit": "µM"},
      {"measurement": "IC50", "setting": "SGC-7901", "result": 75.7, "unit": "µM"}
    ]},
    {"smiles": "O=c1c(O)c(-c2cc(O)c(O)c(S(=O)(=O)O)c2)oc2c(S(=O)(=O)O)c(O)cc(O)c12", "note": "[quercetin-5′,8-disulfonate]", "values": [
      {"measurement": "increased cytotoxicity relative to quercetin", "setting": "cancer cells; relative to quercetin, ref [4]", "result": "about 1.5 fold"}
    ]}
  ]
}
